# In patent publication US10363230B2, “6-shogaol derivatives and activities thereof” (North Carolina Agricultural and Technical State University, priority 2017, dated 2019):
# Several values for one entry are separate records, joined by “and”; a condition that tells them apart may be missing. Identical values can stand only once.
# Test system: not listed separately
# Test: Biotransformation of xenobiotics in zebrafish embryos (LC/MS)
# Assay type: in vivo
# Conditions: 5 μM in incubation medium, 8 hpf to 24 hpf
# Protocol: Fifty zebrafish embryos at the 8 hour-post-fertilization (hpf) stage were incubated at 28.5° C. in 0.3× Danieau's solution (19.3 mM NaCl, 0.23 mM KCl, 0.13 mM MgSO4, 0.2 mM Ca(NO3)2, 1.7 mM HEPES, pH 7.0) with or without 5 μM 18 and 25-27, respectively. At 24 hpf, embryos were dechorionated manually and the chorions were carefully removed one by one from the culture medium. The zebrafish embryos were harvested and kept at −80° C. till analyzed by LC/MS.
# 200 μL Sodium acetate buffer solution (pH 5.0) was added to 50 zebrafish embryos. Samples were homogenized for 90 s by an Omni Bead Ruptor Homogenizer (Kennesaw, Ga., United States of America). 10 μL 10% ascorbic acid and 300 μL sodium acetate buffer were added to the homogenates. The mixture was incubated in the presence of β-glucuronidase (250 U) and sulfatase (3 U) at 37° C. for 45 min, and then 600 μL MeOH with 1% acetic acid was added. The resulting mixture was vortexed for 30 s and then centrifuged at 17000 g for 10 min. The supernatant was removed and evaporated under a gentle stream of nitrogen. The residue was reconstituted in 150 μL 90% MeOH with 0.2% acetic acid (AA), and 10 μL was analyzed directly by LC/MS.
# (§1) LC/MS analysis was carried out with a Thermo-Finnigan Spectra System, which consisted of an Accela high speed MS pump, an Accela refrigerated autosampler, and an LCQ Fleet ion trap mass detector (Thermo Electron, San Jose, Calif., United States of America) incorporated with an electrospray ionization (ESI) interface. A Gemini-NX C18 column (150 mm×4.6 mm i.d., 5 μm; Phenomenex, Torrance, Calif., United States of America) was used for separation at a flow rate of 0.3 mL/min. The column was eluted with 100% A (5% aqueous methanol with 0.2% formic acid) for 1 min, followed by linear increases in B (95% aqueous methanol with 0.2% formic acid) to 55% from 1 to 4 min, to 85% from 4 to 25 min, then to 100% B from 25 to 30 min, and then with 100% B from 30 to 35 min. The column was then re-equilibrated with 100% A for 5 min. The LC eluent was introduced into the ESI interface. The positive ion polarity mode was set for the ESI source with the voltage on the ESI interface maintained at approximately 4.6 kV. Nitrogen gas was used as the sheath gas and auxiliary gas. Optimized source parameters, including capillary temperature (260° C.), sheath gas flow rate (31 arbitrary units), auxiliary gas flow rate (16 units), tube lens (34 V), and capillary voltage 9 V, were tuned using authentic samples. The collision-induced dissociation (CID) was conducted with an isolation width 2 Da and normalized collision energy of 35 for MS^2. The mass range was measured from 100 to 800 m/z. Data acquisition was performed with Xcalibur version 2.0 (Thermo Electron, San Jose, Calif., United States of America).
row,Compound,Cysteine conjugates (metabolites) detected in zebrafish embryos
1,CCCCC/C=C/C(=O)/C=C/c1ccc(O)c(OC)c1 [Compound 18],conjugate 35 was predominantly present
2,CCCCCCCC(=O)CCc1ccc(O)c(O)c1 [Compound 25],conjugates 37 and 37b were exclusively identified
3,CCCCC/C=C/C(=O)/C=C/c1ccc(O)c(O)c1 [Compound 26],"Three conjugates 37, 37b, and 38"

# Test system: not listed separately
# Test: Cysteine conjugates in mouse urine after oral gavage (LC/MS)
# Assay type: in vivo
# Conditions: oral gavage 200 mg/kg, urine collected in 24 h
# Protocol: as §1, with “Optimized source parameters, including capillary temperature (260° C.), sheath gas flow rate (31 arbitrary units), auxiliary gas flow rate (16 units), tube lens (34 V), and capillary voltage 9 V, were tuned using authentic samples. The collision-induced dissociation (CID) was conducted with an isolation width 2 Da and normalized collision energy of 35 for MS^2.” left out, “Data acquisition was performed with Xcalibur version 2.0 (Thermo Electron, San Jose, Calif., United States of America).” left out
# Enzymatic deconjugation of mouse urine was performed as described previously with slight modifications. […] The resulting suspension was centrifuged at 17,000 g for 5 min, and 10 μL of supernatant was analyzed directly by LC/MS.
row,Compound,Cysteine conjugates (metabolites) detected in mouse urine
1,CCCCC/C=C/C(=O)/C=C/c1ccc(O)c(OC)c1 [Compound 18],conjugate 35 was predominantly present

# Test system: Nrf2
# Test: Nrf2 reporter activity by Tg(gstp1:GFP) fluorescence in transgenic zebrafish embryos
# Assay type: in vivo
# Conditions: olfactory epithelia, 24-hour treatment from 1 dpf to 2 dpf, 5 μM (FIG. 2 legends), ratio to DMSO control, mean ± SD, at least 10 embryos
# Protocol: Zebrafish AB transgenic strains Tg(gstp1:GFP) were maintained in a Pentair Aquatic Ecosystem (Apopka, Fla., United States of America) fish housing unit with 14 h light/10 h dark cycle (see Tsujita, T., Li, L., Nakajima, H., Iwamoto, N., Nakajima-Takagi, Y., Ohashi, K., Kawakami, K., Kumagai, Y., Freeman, B. A., Yamamoto, M., and Kobayashi, M. (2011) “Nitro-fatty acids and cyclopentenone prostaglandins share strategies to activate the Keap1-Nrf2 system: a study using green fluorescent protein transgenic zebrafish.” Genes Cells 16, 46-57). The fish embryos were maintained at 28.5° C. in 0.3× Danieau's solution (19.3 mM NaCl, 0.23 mM KCl, 0.13 mM MgSO4, 0.2 mM Ca(NO3)2, 1.7 mM HEPES, pH 7.0) containing 30 μg/ml phenylthiourea (PTU) to inhibit pigmentation. Tg(gstp1:GFP) cross with AB wild-type strain fluorescence embryos were used for the experiment. Zebrafish embryos were washed, dechorionated and anaesthetized before observations, and fluorescence imaging for analysis.
# Transgenic zebrafish embryos at 1 day-post-fertilization (dpf) were dechorionated and placed in Petri dishes containing different chemicals diluted in 0.3× Danieau's solution containing PTU. The chemical stock was dissolved in DMSO at 5 mM concentration.
# An Olympus MVX10 Fluorescence Macroscope (Olympus, Center Valley, Pa., United States of America) equipped with a Hamamatsu C9300-221 high-speed digital CCD camera (Hamamatsu City, Japan) was used for fluorescence microscopy. Tg(gstp1:GFP) fluorescent embryos were anaesthetized in tricaine and imaged at 2 dpf. MetaMorph Basic software (Olympus, Center Valley, Pa., United States of America) was used for image acquisition and analysis.
# The fluorescence intensity of the olfactory neural epithelia was quantitated using MetaMorph Basic software. In brief, GFP expression in the olfactory regions of Tg(gstp1:GFP) embryos treated with various chemicals was measured after 24-hour treatment from 1 dpf to 2 dpf. The GFP induction was detectable by fluorescence signal at the area of the olfactory epithelia in the anterior of the head region, the intensity was measured using an area of a circle of 60 pixel diameter of the fluorescence olfactory epithelia subtracted by a background non-fluorescence area next to the zebrafish embryo. Both the left and right olfactory epithelia were measured to give an average fluorescence value. The values are an average of measurements from at least 10 embryos.
row,Compound,"Ratio/CTL, Tg(gstp1:GFP) fluorescence signal (times higher than vehicle)"
1,CCCCCCCC(=O)/C=C/c1ccc(O)c(OC)c1 [Compound 19],3.29 and 3.29 ± 0.35
2,CCCCCC(CC(=O)CCc1ccc(O)c(OC)c1)SC (stereo not shown) [Compound 8],1.16 ± 0.47
3,CCCCCC(CC(O)CCc1ccc(O)c(OC)c1)SCC(N)C(=O)O (stereo not shown) [Compound 15],1.08 ± 0.65
4,"CCCCC/C=C/C(=O)CCc1ccc(O)c(OC)c1 [Compound 1, [6]-shogaol, reference compound]",2.40 ± 0.54
5,CCCCCCCC(=O)CCc1ccc(O)c(OC)c1 [Compound 5],1.27 and 1.27 ± 0.29
6,"CCCCC[C@H](O)CC(=O)CCc1ccc(O)c(OC)c1 [Compound 11, [6]-gingerol, reference compound]",1.87 and 1.87 ± 0.51
7,CCCCCC=CC(O)CCc1ccc(O)c(OC)c1 (stereo not shown) [Compound 4],1.13 and 1.13 ± 0.21
8,CCCCC/C=C/C(=O)/C=C/c1ccccc1C(F)(F)F [Compound 24],1.55 and 1.55 ± 0.67
9,CCCCCC(CC(O)CCc1ccc(O)c(OC)c1)SCC(NC(C)=O)C(=O)O (stereo not shown) [Compound 16],0.78 ± 0.12
10,"CCCCCCCCC/C=C/C(=O)CCc1ccc(O)c(OC)c1 [Compound 3, reference compound]",1.53 ± 0.53
11,CCCCCC(CC(=O)CCc1ccc(O)c(OC)c1)SCC(NC(C)=O)C(=O)O (stereo not shown) [Compound 7],1.04 ± 0.05
12,CCCCC/C=C/C(=O)/C=C/c1cc(OC)c(O)c(C(F)(F)F)c1 [Compound 21],2.18 and 2.18 ± 0.53
13,CCCCC/C=C/C(=O)/C=C/c1cccc(C(F)(F)F)c1F [Compound 23],1.63 and 1.63 ± 0.17
14,CCCCCC(CC(O)CCc1ccc(O)c(OC)c1)SC (stereo not shown) [Compound 17],0.72 ± 0.14
15,CCCCCC(CC(=O)CCc1ccc(O)c(OC)c1)SCC(N)C(=O)O (stereo not shown) [Compound 6],1.06 ± 0.20
16,"CCCCCCC/C=C/C(=O)CCc1ccc(O)c(OC)c1 [Compound 2, reference compound]",1.67 ± 0.55
17,"CCCCCCCCC[C@H](O)CC(=O)CCc1ccc(O)c(OC)c1 [Compound 13, reference compound]",1.29 and 1.29 ± 0.40
18,CCCCC/C=C/C(=O)/C=C/c1cc(O)c(O)c(OC)c1 [Compound 20],1.26 and 1.26 ± 0.14
19,CCCCCC(CC(=O)CCc1ccc(O)c(OC)c1)OC (stereo not shown) [Compound 10],0.96 ± 0.24
20,"CCCCCCC[C@H](O)CC(=O)CCc1ccc(O)c(OC)c1 [Compound 12, reference compound]",1.65 and 1.65 ± 0.29
21,CCCCC/C=C/C(=O)/C=C/c1cccc(C(F)(F)F)c1 [Compound 22],1.28 and 1.28 ± 0.10

# Same assay, conditions: olfactory epithelia, 24-hour treatment from 1 dpf to 2 dpf, 5 μM (FIG. 2 legends), ratio to DMSO control, mean ± SD, at least 10 embryos; listed as 6S
row,Compound,"Ratio/CTL, Tg(gstp1:GFP) fluorescence signal (times higher than vehicle)"
1,"CCCCC/C=C/C(=O)CCc1ccc(O)c(OC)c1 [Compound 1, [6]-shogaol, reference compound]",2.40

# Same assay, conditions: olfactory epithelia, 24-hour treatment from 1 dpf to 2 dpf, 5 μM (FIG. 2 legends), ratio to DMSO control, mean ± SD, at least 10 embryos; listed as 8S
row,Compound,"Ratio/CTL, Tg(gstp1:GFP) fluorescence signal (times higher than vehicle)"
1,"CCCCCCC/C=C/C(=O)CCc1ccc(O)c(OC)c1 [Compound 2, reference compound]",1.67

# Same assay, conditions: olfactory epithelia, 24-hour treatment from 1 dpf to 2 dpf, 5 μM (FIG. 2 legends), ratio to DMSO control, mean ± SD, at least 10 embryos; listed as 10S
row,Compound,"Ratio/CTL, Tg(gstp1:GFP) fluorescence signal (times higher than vehicle)"
1,"CCCCCCCCC/C=C/C(=O)CCc1ccc(O)c(OC)c1 [Compound 3, reference compound]",1.53
